Test results published in PMC11862924, “Phenylpyrazoles as Inhibitors of the m^6A RNA-Binding Protein YTHDF2” (JACS Au, 2025).
Entries after “also recorded” stand apart in the source; their conditions may differ.

How the values were obtained:
K562 = assay: CCK-8 proliferation assay, K562; type: cell-based; settings: Homo sapiens, CCK-8 kit assay, triplicates, 72 h, read-out: Anti-proliferation activity against cancer cells (IC50), K562
Experimental: (§1) The JAR, K562, HCT116, and MOLM13 cells were seeded in 96-well plates (3000 cells/well). After being cultured overnight, compounds were added together with the DMSO treatment (0.1%) as a control. After 72 h, CCK-8 solution (Vazyme, A311) was added, and the cells were incubated at 37 °C for 4 h. The absorbance was measured at 450 nm using a plate reader (TECAN Spark).

YTHDF2 [1] = target: T1, YTHDF2 (Homo sapiens, UniProt Q9Y5A9); assay: nanoDSF thermal shift assay; type: binding; settings: for ΔTm at 5 µM: 5 μM compound; for ΔTm at 10 µM: 10 μM compound
T1 construct: A YTHDF2 YTH domain construct (residues 383–553) was subcloned to a pOPIN plasmid; made in house; host or cells: Escherichia coli BL21(DE3)
T1 sequence (Q9Y5A9 383-553): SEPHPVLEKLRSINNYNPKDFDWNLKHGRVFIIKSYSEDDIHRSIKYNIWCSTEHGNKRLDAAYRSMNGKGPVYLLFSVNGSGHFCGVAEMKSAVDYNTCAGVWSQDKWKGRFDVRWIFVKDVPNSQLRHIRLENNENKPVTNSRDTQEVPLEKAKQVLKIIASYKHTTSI
Experimental: NanoDSF was measured on a NanoTemper instrument (Prometheus NT.48). YTHDF2 protein was used at a concentration of 5 μM and incubated with 50, 25, 10, and 5 μM compound in buffer (100 mM KPi, pH 7.0, 250 mM NaCl, 10% Glycerol) for 50 min, in which 0.1% DMSO was used as the reference. The heat rate was set to 1 °C per minute, measured in a range between 20 and 90 °C.

HCT116 = assay: CCK-8 proliferation assay, HCT116; type: cell-based; settings: Homo sapiens, HCT-116; CCK-8 kit assay, triplicates, 72 h; read-out: Anti-proliferation activity against cancer cells (IC50), HCT116
Experimental: as §1

[2] = target: T2, YTHDF2 (residues 383–553) (Homo sapiens, UniProt Q9Y5A9); assay: Fluorescence polarization (FP) assay, YTHDF2–m6A RNA interaction; type: binding; settings: for inhibition at 100 µM / inhibition at 100 μM in the FP assay: 100 μM compound, YTHDF2 (residues 383–553, 20 nM), FAM-labeled m6A RNA probe 5 nM, average ± SD; for inhibitory IC50 in FP (in words): YTHDF2–m6A RNA interaction, Figure S2
T2 construct: A YTHDF2 YTH domain construct (residues 383–553) was subcloned to a pOPIN plasmid; made in house; host or cells: Escherichia coli BL21(DE3)
T2 sequence (Q9Y5A9 383-553): T1 sequence (Q9Y5A9 383-553)
Experimental: (§2) The FP assay was performed in 384-well black plates (Corning no. 4514) with a total reaction volume of 15 μL. The final concentrations of protein (YTHDF2) and RNA were […], respectively, in a buffer containing 20 mM HEPES/KOH pH 7.5, 50 mM NaCl, 0.005% Tween 20, and 1 mM GSH (DTT). Compounds were incubated with protein, added FAM-m^6A RNA probe ([…](m6)ACUGUG) (purchased from IDT), and incubated at 4 °C for 30 min. The fluorescence polarization was measured using a plate reader (TECAN Spark) under an excitation wavelength of 485 nm and an emission wavelength of 535 nm with a bandwidth of 20 nm. […] The data were determined using GraphPad Prism 9.

YTHDF2 [3] = target: T1, YTHDF2; assay: Electrophoretic mobility shift assay (EMSA); type: binding; settings: for inhibition of the YTHDF2–m6A RNA interaction in EMSA at 100 μM (in words): 100 μM compound, 250 nM YTHDF2, FAM-labeled m6A RNA; for concentration-dependent inhibition of YTHDF2–m6A RNA complex formation in EMSA (in words): 3.1–100 μM compound, 250 nM YTHDF2, 20 nM FAM-labelled m6A RNA
Experimental: Compounds with different concentrations (3.1–100 μM) were incubated with 250 nM YTH-domain and 20 nM FAM-17mer-RNA in a buffer containing 20 mM HEPES, pH 8.2, 50 mM NaCl, 0.05% Triton X-100, and 5% v/v glycerol for 20 min at 4 °C. […] Gel imaging was performed in ChemiDoc MP (Bio-Rad), and Cy2/Alexa488 fluorescence was detected with a 1-min exposure time. Quantification of the gel image was performed by ImageJ.

K562 cells = assay: Cell cycle analysis by flow cytometry; type: cell-based, human; settings: 24 h
Experimental: K562 cells were seeded in 6-well plates (1.0 × 10^6 cells/well) and incubated overnight. Compounds of different concentrations were added to the 6-well plates. The cell cycle analysis kit (SIGMA-Aldrich, MAK344) was used after incubation for 24 h. The cells were detached with trypsin and washed with 2 mL of ice-cold cell cycle assay buffer for each sample. The supernatant was removed after centrifugation. The cells were fixed by adding 2 mL of ice-cold 70% ethanol (added dropwise while vortexing) to the cell pellet and then placed on ice for 30 min. The supernatant was removed after centrifuging at 400 × g for 5 min. Cells were washed with a cell cycle assay buffer (2 mL). Cells were resuspended completely in 500 μL of staining solution and were protected from light exposure. After being incubated at room temperature for 30 min, each sample was analyzed by flow cytometry (Sony Biotechnology Cell Sorter SH800S) with proper machine settings. The data were analyzed by cell sorter software (Sony Biotechnology).

[4] = target: T3, YTHDF3 (residues 391-585) (Homo sapiens, UniProt Q7Z739); assay: FP assay with YTH domain of YTHDF3; type: binding; settings: 2.0 µM YTHDF3
T3 construct: YTHDF3 (residues 391–585); made in house; host or cells: Escherichia coli BL21(DE3); plasmid from the Zhou lab (Boston College)
T3 sequence (Q7Z739 391-585): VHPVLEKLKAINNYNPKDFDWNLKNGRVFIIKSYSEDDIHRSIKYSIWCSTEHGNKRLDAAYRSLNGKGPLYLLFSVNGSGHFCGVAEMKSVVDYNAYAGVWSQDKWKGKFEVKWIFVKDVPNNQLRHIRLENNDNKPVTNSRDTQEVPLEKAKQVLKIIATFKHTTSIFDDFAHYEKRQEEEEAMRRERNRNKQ
Experimental: as §2
Figure S9. The FP assay of YTHDF3 binding to the m6A RNA substrate. (A) The purification of YTHDF3 (residues 391-585), molecular weight: 24.1 kDa. (B) The anisotropy values using different concentrations of YTHDF3 with the m6A RNA probe (4 nM), which was used to decide the appropriate […] concentration for the FP (2.0 µM of YTHDF3, Z-factor: 0.55). (C) The […]
(1 picture or pasted object on this page, not shown here)

JAR cells = assay: Colony formation assay; type: cell-based, human; settings: n = 3 biological replicates
Experimental: JAR cells in the growth phase are prepared into cell suspensions by traditional digestion. A cell suspension (2 mL) with 200 cells per dish was seeded into a 6-well plate and incubated for 7 days. When visible colonies are present in the 6-well plate, the medium is discarded. The colonies are carefully soaked twice in PBS and dried in air. Cells were fixed with a 4% paraformaldehyde solution for 15 min. The paraformaldehyde solution was discarded, and Giemsa was used to stain the cells for 10 min. The dye solution was slowly washed away with Milli-Q water and then dried in air. The colony number and type were assessed manually under a microscope.

| IC50 (K562) [µM] | ΔTm at 5 µM (YTHDF2 [1]) [°C] | ΔTm at 10 µM (YTHDF2 [1]) [°C] | IC50 (HCT116) [µM] | inhibition at 100 µM [2] [%] | inhibition at 100 μM in the FP assay [2] [%] | inhibitory IC50 in FP (in words) [2] | concentration-dependent inhibition of YTHDF2–m6A RNA complex formation in EMSA (in words) (YTHDF2 [3]) | inhibitory activity against YTHDF3 in FP (in words) [4] | inhibition at 100 µM ([4]; read-out: inhibition of YTHDF3 at 100 μM in FP, 100 μM compound) [%] | ΔTm at 25 µM (YTHDF2 [1]; 25 μM compound) [°C] | Compound | inhibition of the YTHDF2–m6A RNA interaction in EMSA at 100 μM (in words) (YTHDF2 [3]) | cells in the G0/G1 phase (K562 cells; 25 μM) [%] | cell cycle arrest (in words) (K562 cells) | colony formation (in words) (JAR cells) |
| --- | --- | --- | --- | --- | --- | --- | --- | --- | --- | --- | --- | --- | --- | --- | --- |
| 28.1 ± 1.6 | 0.96 ± 0.08 | 1.39 ± 0.37 | 44 ± 6.8 | > 70 | 70.3 ± 5.1 | low double-digit micromolar | potent inhibition |  |  |  | Cc1cc(O)c(C(=O)c2cnn(-c3ccc(C(=O)O)cc3)c2)cc1Cl [CK-79] | potent inhibition; also recorded: potently inhibited |  |  |  |
|  |  |  |  |  |  |  |  | inactive |  |  | O=C(O)c1ccc(-n2cc(C(=O)c3c(O)ccc4ccccc34)cn2)cc1 [CK-75] |  | > 70 | induced cell cycle arrest in the G0/G1 phase concentration-dependently | concentration-dependently inhibited the colony formation |
| > 50 | 0.94 ± 0.58 | 1.56 ± 0.41 | > 50 | > 70 | 81.4 ± 10.7 | low double-digit micromolar | potent inhibition |  | 12.4 | 3.21 | O=C(O)c1ccc(-n2cc(C(=O)c3cc(Cl)cc(Cl)c3O)cn2)cc1 [CK-61] | potent inhibition; also recorded: potently inhibited |  |  |  |
